From PubChem BioAssay (NCI)
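Test compounds were applied to cells in 96-well plates for 48 hours at 5 doses. Here, GI50 denotes the concentration required for 50% inhibition of growth. At the TGI there is no net growth.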

What was measured:
Assay in all cases: DTP human tumour cell line panel, 48 h
[1] = tested on: 786-0 renal
[2] = tested on: A498 renal
[3] = tested on: A549 NSCLC
[4] = tested on: ACHN renal
[5] = tested on: BT-549 breast
[6] = tested on: CAKI-1 renal
[7] = tested on: CCRF-CEM leukemia
[8] = tested on: COLO 205 colon
[9] = tested on: DU-145 prostate
[10] = tested on: EKVX NSCLC
[11] = tested on: HCC-2998 colon
[12] = tested on: HCT-116 colon
[13] = tested on: HCT-15 colon
[14] = tested on: HL-60(TB) leukemia
[15] = tested on: HOP-62 NSCLC
[16] = tested on: HOP-92 NSCLC
[17] = tested on: HS 578T breast
[18] = tested on: HT29 colon
[19] = tested on: IGROV1 ovarian
[20] = tested on: K-562 leukemia
[21] = tested on: KM12 colon
[22] = tested on: LOX IMVI melanoma
[23] = tested on: M14 melanoma
[24] = tested on: MALME-3M melanoma
[25] = tested on: MCF7 breast
[26] = tested on: MDA-MB-231 breast
[27] = tested on: MDA-MB-435
[28] = tested on: MOLT-4 leukemia
[29] = tested on: NCI-H226 lung

CCOC(=O)C(Cc1ccc(CCCC(=O)NCCC(=O)Nc2ccc3nc(C)sc3c2)cc1)C(=O)OCC
GI50 [1]: > 77.9 µM
TGI [1]: > 100 µM
GI50 [2]: > 100 µM
TGI [2]: > 100 µM
GI50 [3]: 59.1 µM
TGI [3]: > 100 µM
GI50 [4]: 18.2 µM
TGI [4]: 34.3 µM
GI50 [5]: 23.7 µM
TGI [5]: 72.8 µM
GI50 [6]: 49.1 µM
TGI [6]: > 100 µM
GI50 [7]: 28.6 µM
TGI [7]: > 89.3 µM
GI50 [8]: 32.3 µM
TGI [8]: > 96.4 µM
GI50 [9]: 51.1 µM
TGI [9]: > 100 µM
GI50 [10]: 53.7 µM
TGI [10]: > 100 µM
GI50 [11]: 60.4 µM
TGI [11]: > 100 µM
GI50 [12]: 45.8 µM
TGI [12]: > 100 µM
GI50 [13]: 31.8 µM
TGI [13]: > 100 µM
GI50 [14]: 23.7 µM
TGI [14]: 64.7 µM
GI50 [15]: > 83.3 µM
TGI [15]: > 100 µM
GI50 [16]: 55.6 µM
TGI [16]: > 100 µM
GI50 [17]: 68.3 µM
TGI [17]: > 100 µM
GI50 [18]: > 64.2 µM
TGI [18]: > 100 µM
GI50 [19]: 64.8 µM
TGI [19]: > 100 µM
GI50 [20]: 47.3 µM
TGI [20]: > 100 µM
GI50 [21]: 33.4 µM
TGI [21]: > 100 µM
GI50 [22]: 33.2 µM
TGI [22]: > 100 µM
GI50 [23]: 29.3 µM
TGI [23]: > 93.8 µM
GI50 [24]: 28.3 µM
TGI [24]: > 84.4 µM
GI50 [25]: 22.2 µM
TGI [25]: 64.3 µM
GI50 [26]: 52.5 µM
TGI [26]: > 100 µM
GI50 [27]: 26 µM
TGI [27]: 76.5 µM
GI50 [28]: 21.3 µM
TGI [28]: 54.5 µM
GI50 [29]: 36.1 µM
TGI [29]: > 100 µM
